Read-outs that look alike come from different tables or passages of the source.
Experiments:
ATF4 = ATF4 expression inhibition assay (thapsigargin-stressed HEK293T cells, western blot); type: cell-based; conditions: Homo sapiens, HEK-293T; for inhibition at 0.1 µM: 3 h with 100 nM thapsigargin (Tg) and 100 nM test compound; for inhibition at 0.1 µM / inhibition at 1 µM: Tg alone 0%, untreated 100%; for inhibition at 1 µM: 3 h with 100 nM thapsigargin (Tg) and 1 μM test compound; for IC50: 3 h with 100 nM Tg, test compound 1 nM to 1 μM
Procedure: HEK293T cells were maintained at 37° C. and 5% CO2 in Dulbecco's Modified Eagle's Media (DMEM) supplemented with 10% fetal bovine serum (FBS), 2 mM L-glutamine, 100 U/ml penicillin, and 100 μg/ml streptomycin. […] Cells without treatment or cells treated with Tg alone were used as controls.
After 3 hours of treatment with Tg and the test compound, cells were lysed with SDS-PAGE lysis buffer. Lysates were transferred to 1.5 ml tubes and sonicated for 3 min, and total protein amounts were quantified using BCA Protein Assay Kit (Pierce). Equal amount of proteins were loaded on SDS-PAGE gels. Proteins were transferred onto 0.2 μm PVDF membranes (BioRad) and probed with primary antibodies diluted in Tris-buffered saline supplemented with 0.1% Tween 20 and 3% bovine serum albumin.
(§1) ATF4 (11815) antibody was used as primary antibody (Cell Signaling Technologies). A horseradish peroxidase (HRP)-conjugated secondary antibody (Rockland) was employed to detect immune-reactive bands using enhanced chemiluminescence (ECL Western Blotting Substrate, Pierce). Quantification of protein bands was done by densitometry using ImageJ.
Percentages of ATF4 inhibition after induction with Tg in the presence of 100 nM or 1 μM of certain test compounds are shown in Table 2 and FIG. 1. Percentage of ATF4 inhibition was calculated as the percent reduction normalized to Tg treatment (0% inhibition) and untreated cells (100% inhibition). Also shown in Table 2 is the calculated IC50 for the test compounds. […] Accordingly, inhibition of ATF4 expression as a result of the test compound indicates suppression of the ISR pathway.

CHO cells = assay: Protein translation assay (puromycin incorporation in CHO cells, unstressed or Tg-stressed); type: cell-based, Chinese hamster; conditions: for activity at 0.1 µM / activity at 1 µM: Cricetulus griseus, media alone 100%; for activity at 0.1 µM: read-out: % Recovery of protein expression (100 nM test compound); for protein translation: summary of Table 3; for protein synthesis in a cell versus ATF4 translation: under ISR-stressed or non-ISR stressed conditions
Procedure: CHO cells were maintained at 37° C. and 5% CO2 in DMEM supplemented with 10% fetal bovine serum (FBS), 2 mM L-glutamine, 100 U/ml penicillin, and 100 μg/ml streptomycin. After reaching 80% of confluence, cells were detached and seeded on 6 well plates in complete media, allowed to recover overnight and treated for 2 hours with 1 μM of the test compound (to assess protein synthesis levels in unstressed condition), or for 1 hour with 100 nM and 1 μM of the test compound and then co-treated with 300 nM Tg and 100 nM and 1 μM of the test compound (to assess the recovery of protein synthesis in a stressed condition). Cells treated with Tg alone were used as controls.
After the 2 hours treatments, media were replaced by adding 10 μg/ml puromycin (Sigma Aldrich) in complete media for 30 min. Media were removed and cells were lysed with SDS-PAGE lysis buffer. Lysates were transferred to 1.5 ml tubes and sonicated for 3 minutes and total protein amount were quantified using BCA Protein Assay Kit (Pierce). Equal amount of protein (30 μg) was loaded on SDS-PAGE gels. Proteins were transferred onto 0.2 μm PVDF membranes (BioRad) and probed with primary antibodies diluted in Tris-buffered saline supplemented with 0.1% Tween 20 and 3% bovine serum albumin.
as §1, with “Puromycin (12D10)” for “ATF4 (11815)”, “(Merck Millipore).” for “(Cell Signaling Technologies).”, “HRP-conjugated” for “horseradish peroxidase (HRP)-conjugated”
Percent increase of protein synthesis in unstressed cells (without Tg treatment) in the presence of media alone or certain test compounds is shown in Table 3 and FIG. 2. The percentage levels were normalized to the media alone condition, which correspond to 100% protein synthesis.
Percent recovery of protein synthesis in stressed cells (with Tg treatment) due to the test compounds at 100 nM or 1 μM is shown in FIGS. 3A and 3B, respectively, and in Table 3. The levels were normalized to the media alone and to Tg alone conditions, which correspond to 100% and 0% respectively.

[1] = CHO cells stressed with 300 nM Tg, Tg alone 0%
[2] = CHO cells stressed with 300 nM Tg, Tg alone 0%, read-out: % Recovery of protein expression (1 μM test compound)
[3] = unstressed CHO cells, 2 h, read-out: % Protein expression relative to untreated (1 μM test compound)

| Structure (SMILES) | inhibition at 0.1 µM (ATF4) [%] | inhibition at 1 µM (ATF4) [%] | activity at 0.1 µM (CHO cells; [1]) [%] | activity at 1 µM (CHO cells; [2]) [%] | activity at 1 µM (CHO cells; [3]) [%] | IC50 (ATF4) [µM] | protein translation (CHO cells) | protein synthesis in a cell versus ATF4 translation (CHO cells) |
| --- | --- | --- | --- | --- | --- | --- | --- | --- |
| O=C(COc1ccc(Cl)cc1)N[C@H]1CC[C@H](NC[C@H](O)COc2ccc(Cl)cc2)CC1 (single isomer, unassigned) [Compound 4, (−)-2-(4-chlorophenoxy)-N-(4-((3-(4-chlorophenoxy)-2-hydroxypropyl)amino)cyclohexyl)acetamide] | 31 | 54 | – | – | – | – | – | – |
| O=C(COc1ccc(Cl)c(F)c1)N[C@H]1CC[C@H](NC[C@@H](O)COc2ccc(Cl)c(F)c2)CC1 (single isomer, unassigned) [Compound 6, (+)-2-(4-chloro-3-fluorophenoxy)-N-(4-((3-(4-chloro-3-fluorophenoxy)-2-hydroxypropyl)amino)cyclohexyl)acetamide] | 52 | 83 | 60.2 | 197 | 195 | 0.0828 | – | – |
| O=C(COc1ccc(Cl)c(F)c1)N[C@H]1CC[C@H](NC[C@H](O)COc2ccc(Cl)c(F)c2)CC1 (single isomer, unassigned) [Compound 7, (−)-2-(4-chloro-3-fluorophenoxy)-N-(4-((3-(4-chloro-3-fluorophenoxy)-2-hydroxypropyl)amino)cyclohexyl)acetamide] | 0 | 0 | – | – | – | – | – | – |
| O=C(COc1ccc(Cl)cc1)NC1CCN(C[C@@H](O)COc2ccc(Cl)cc2)CC1 (single isomer, unassigned) [Compound 16, (+)-2-(4-chlorophenoxy)-N-(1-(3-(4-chlorophenoxy)-2-hydroxypropyl)piperidin-4-yl)acetamide] | 0 | 38 | – | – | – | – | – | – |
| O=C(COc1ccc(Cl)c(F)c1)NC1CCN(C[C@@H](O)COc2ccc(Cl)c(F)c2)CC1 (single isomer, unassigned) [Compound 27, (+)-2-(4-chloro-3-fluorophenoxy)-N-(1-(3-(4-chloro-3-fluorophenoxy)-2-hydroxypropyl)piperidin-4-yl)acetamide] | 54 | 73 | – | – | – | – | – | – |
| O=C(NC1CCN(C[C@H](O)COc2ccc(Cl)c(F)c2)CC1)c1cc2cc(Cl)ccc2o1 (single isomer, unassigned) [Compound 149, (+)-5-chloro-N-(1-(3-(4-chloro-3-fluorophenoxy)-2-hydroxypropyl)piperidin-4-yl)benzofuran-2-carboxamide] | 62 | 96 | 107 | 281 | 138 | 0.0299 | – | – |
| O=C(NC1CCN(C[C@@H](O)COc2ccc(Cl)c(F)c2)CC1)c1cc2cc(Cl)ccc2o1 (single isomer, unassigned) [Compound 150, (−)-5-chloro-N-(1-(3-(4-chloro-3-fluorophenoxy)-2-hydroxypropyl)piperidin-4-yl)benzofuran-2-carboxamide] | 0 | 43 | 61 | 200 | 184 | – | increased protein translation | increase protein synthesis in a cell without full inhibition of ATF4 translation |
| O=C(NC1CCN(C[C@@H](O)COc2ccc(Cl)c(F)c2)CC1)c1ccc2cc(Cl)ccc2n1 (single isomer, unassigned) [Compound 153, (−)-6-chloro-N-(1-(3-(4-chloro-3-fluorophenoxy)-2-hydroxypropyl)piperidin-4-yl)quinoline-2-carboxamide] | 0 | 0 | 51.5 | 236 | 323 | – | increased protein translation | increase protein synthesis in a cell without full inhibition of ATF4 translation |
| O=C(N[C@H]1CC[C@H](NC[C@@H](O)COc2ccc(Cl)c(F)c2)CC1)c1cc2cc(Cl)ccc2o1 (single isomer, unassigned) [Compound 154, (+)-trans-5-chloro-N-(4-((3-(4-chloro-3-fluorophenoxy)-2-hydroxypropyl)amino)cyclohexyl)benzofuran-2-carboxamide] | 92 | 96 | 96.3 | 234 | 188 | 0.0137 | – | – |
| O=C(COc1ccc(Cl)cc1)N[C@H]1CC[C@H](NC(=O)[C@@H]2CNc3cc(Cl)ccc3O2)CC1 (single isomer, unassigned) [Compound 158, (+)-trans-6-chloro-N-(4-(2-(4-chlorophenoxy)acetamido)cyclohexyl)-3,4-dihydro-2H-benzo[b][1,4]oxazine-2-carboxamide] | 96 | 96 | 86.8 | 199 | 168 | 0.0091 | – | – |
| O=C(COc1ccc(Cl)cc1)NC1CCN(CC(O)COc2ccc(Cl)cc2)CC1 (single isomer, unassigned; (-)) [Compound 15, (−)-2-(4-chlorophenoxy)-N-(1-(3-(4-chlorophenoxy)-2-hydroxypropyl)piperidin-4-yl)acetamide] | 77 | 99 | 35.6 | 159 | 68.3 | 0.0521 | – | – |
| O=C(COc1ccc(Cl)cc1)N[C@H]1CC[C@H](NC(=O)C(O)COc2ccc(Cl)cc2)CC1 (stereo partly drawn) [Compound 8, trans-3-(4-chlorophenoxy)-N-(4-(2-(4-chlorophenoxy)acetamido)cyclohexyl)-2-hydroxypropanamide] | 0 | 0 | – | – | – | – | – | – |
| O=C(COc1ccc(Cl)c(F)c1)N[C@H]1CC[C@H](NC(=O)C(O)COc2ccc(Cl)c(F)c2)CC1 (stereo partly drawn) [Compound 9, trans-3-(4-chloro-3-fluorophenoxy)-N-(4-(2-(4-chloro-3-fluorophenoxy)acetamido)cyclohexyl)-2-hydroxypropanamide] | 12 | 20 | – | – | – | – | – | – |
| O=C(COc1ccc(Cl)c(F)c1)N[C@H]1CCCN(CC(O)COc2ccc(Cl)c(F)c2)C1 (stereo partly drawn) [Compound 11, 2-(4-chloro-3-fluorophenoxy)-N-((3S)-1-(3-(4-chloro-3-fluorophenoxy)-2-hydroxypropyl)piperidin-3-yl)acetamide] | 0 | 0 | – | – | – | – | – | – |
| O=C(COc1ccc(Cl)c(F)c1)N[C@@H]1CCCN(CC(O)COc2ccc(Cl)c(F)c2)C1 (stereo partly drawn) [Compound 12, 2-(4-chloro-3-fluorophenoxy)-N-((3R)-1-(3-(4-chloro-3-fluorophenoxy)-2-hydroxypropyl)piperidin-3-yl)acetamide] | 0 | 0 | – | – | – | – | – | – |
| O=C(COc1ccc(Cl)c(F)c1)N1CCC(NCC(O)COc2ccc(Cl)c(F)c2)CC1 (centres unmarked) [Compound 14, 2-(4-chloro-3-fluorophenoxy)-1-(4-((3-(4-chloro-3-fluorophenoxy)-2-hydroxypropyl)amino)piperidin-1-yl)ethan-1-one] | 0 | 0 | – | – | – | – | – | – |

— patent US11230542B2, “Inhibitors of integrated stress response pathway” (Praxis Biotech LLC, priority 2017, dated 2022)
